In patent publication US20120101169A1, “METHODS OF PROVIDING ANTICOAGULATION EFFECTS IN SUBJECTS” (Penwest Pharmaceuticals Co., priority 2010, published 2012):
Where two headings read alike, the source gives them in different places. Marks after values point to notes of the source that are not given here.

Experiments:
[1] = Single-dose ascending-dose pharmacokinetics of ATQ in healthy volunteers (Example 4); details: for CL/F: fed conditions, mean
Method: Healthy adult male subjects were enrolled into 1 of 6 cohorts of 10 subjects, and randomly assigned to receive either alpha-tocopherolquinone (ATQ) (8 subjects) in olive oil or placebo (2 subjects). Safety, tolerability and PK characteristics of ATQ were assessed under fasted conditions (low dose of 0.25 g and 0.5 g) and fed conditions (range of 0.5 g to 6.0 g), during co-administration with 400 IU vitamin E (2.0 g), and following a 2.2 g total dose administered in 3 equally-divided doses of 0.735 g, and 7 hours apart. There was a 2-week interval between dosing of cohorts while a medical review of the data collected on the preceding dose was conducted. Blood samples for the measurement of ATQ concentration were collected pre-dose and up to 168 hours following dose administration. All plasma ATQ concentrations were determined using a GLP validated bioanalytical method. Blood samples for the measurement of vitamin E concentrations were collected prior to and at 24 hours following dose administration (Cohorts 1, 2, and 3) and serially for up to 24 hours in Cohorts 4 through 6 except for Cohort 4, Period 2 (vitamin E co-administration) where samples were collected for up to 96 hours. Urine was collected for the measurement of ATQ and its metabolites in pooled intervals up to 72 hours post-dose for all cohorts.

[2] = Multiple ascending dose pharmacokinetics of ATQ (Example 5 Part 2); format: in vivo, human; details: for Cmax / AUC: both sexes, human, plasma, oral; for AUC: read-out: AUC(0-tau, 24)
Method: The study was conducted in 2 parts. Part 1 was conducted in healthy male subjects only while Part 2 was conducted in healthy male and female subjects. The intent of this study part was to optimize the dosage regimen and diet for the multiple-dose safety and tolerance Part 2 of the study. All plasma ATQ concentrations were determined using a GLP validated bioanalytical method. ATQ was administered as an oral solution in oil (0.49 g/mL). The placebo solution consisted of olive oil alone.
Part 2 was conducted as a multiple-dose dose-escalation design. […] Dose administration was subsequently switched to a BID regimen administered for 14 days.
Part 2 was conducted as a multiple-dose dose-escalation design in male and female subjects. None of the subjects who participated in Part 1 of the study were eligible to participate in Part 2. A total of 32 subjects were enrolled in Part 2. Twenty (20) subjects received ATQ or placebo for one week in a single-blind, randomized, placebo-controlled design: Cohort 1 […] low dose (1 g/day as 0.33 g TID) and Cohort 2 […] midrange dose (2 g/day as 0.67 g TID). In each cohort, 8 subjects received ATQ and 2 subjects received placebo under fed conditions. An additional 12 subjects were subsequently enrolled into 2 additional cohorts of 6 subjects each. The 12 subjects were randomized to receive one of the two following ATQ doses: Cohort 3 (N=6) low dose (0.5 g BID) and Cohort 4 (N=6) intermediate dose (0.75 g BID) administered for 14 days with a standard meal. All subjects participating in Cohorts 3 and 4 received ATQ; there was no placebo arm.
For Part 2, serial blood samples for the measurement of the plasma levels of ATQ were collected in Cohorts 1 and 2 as part of a 3 times daily regimen prior to and over the first 6-hour dosing interval following administration of the first dose on Day 1, prior to the morning dose on Days 3, 5, and 6, over the 6-hour and 12-hour dosing intervals following the afternoon and evening dose, respectively, and up to 48 hours after the final (morning) dose on Day 7.
In Cohorts 3 and 4, serial blood samples for the measurement of the plasma levels of ATQ were collected for the twice-daily regimen prior to and over the 12-hour dosing interval following the first dose administration on Day 1, prior to the morning dose on Days 4, 7, 10, 13, and 14, and over the 12-hour dosing interval after the final (morning) dose on Day 14. Multiple-dose PK data over the dose range of 1.0-g/day (BID and TID), 1.5-g/day (BID), and 2.0-g/day (TID) were generated in this study.
Part 2 multiple-dose results are provided for Day 7 (Cohorts 1 and 2) or Day 14 unless otherwise indicated. Parameters designated with the term 24 refer to pharmacokinetic parameters derived for a 24-hour TID or BID dosing period.

protein S = assay: Extended coagulation biomarker panel: protein S; format: in vivo, human; details: Part 2, 0.67 g TID, Day 4
Excerpt: (§1) In Part 1 the extended panel was collected at screening and at check-in (Day −1) and Day 2 of each period unless the study results warranted a different sampling schedule. In Part 2, the same of the exploratory coagulation biomarkers were collected at screening, check-in, Day 4, and Day 8 in Cohorts 1 and 2, or at check-in, Day 7, and Day 14 in Cohorts 3 and 4 with the following exception: in Cohorts 3 and 4, platelet function was collected at check-in only or when medically indicated.

factor II (prothrombin) = assay: Extended coagulation biomarker panel: factor II; format: in vivo, human; details: Part 2, 0.67 g TID, Day 4
Excerpt: as §1

[3] = 1-g/day (0.33 g TID), mean, N = 8
[4] = 1-g/day (0.5 g BID), morning dose data, N = 5
[5] = 1.5-g/day (0.75 g BID), morning dose data, N = 6
[6] = 2-g/day (0.67 g TID), mean, N = 7

CC1=C(C)C(=O)C(CC[C@](C)(O)CCC[C@H](C)CCC[C@H](C)CCCC(C)C)=C(C)C1=O [ATQ, alpha-tocopherolquinone]
Increase in bioavailability with a high-fat meal ([1]; 0.5 g with high-fat meal versus fasted): over 60 fold
ATQ concentration versus time profile with and without vitamin E ([1]; 2 g QD dose, with and without 400-IU of vitamin E): essentially unchanged
CL/F ([1]; 2.2 g (0.735 g TID), N = 8): 22.731 L/h
Effect of dividing the dose on ATQ bioavailability ([1]; 2.2 g as 3 doses of 0.735 g 7 hours apart rather than a single unit): significantly increased ATQ bioavailability
Baseline-adjusted ATQ concentration at 24 hours as share of Cmax ([1]; 24 hours post-dose): less than 1%
Tmax ([1]; male, human, plasma, oral): 6 h
Time for ATQ concentrations to return to endogenous baseline levels ([1]; post-dose): ≤ 24 h
CL/F ([1]; single 0.5 g dose, N = 6): 25.910[b] L/h
CL/F ([1]; single 1.0 g dose, N = 7): 15.950[c] L/h
CL/F ([1]; single 2.0 g dose, N = 7): 33.404[c] L/h
CL/F ([1]; single 6.0 g dose, N = 6): 62.824[b] L/h
Dose proportionality of absorption ([1]; single doses 0.5 g to 6.0 g after high-fat breakfast): dose proportional between 0.5 g and 1 g but was blunted at higher doses
Absorption under fasted conditions ([1]; single oral doses 0.25 g and 0.5 g, fasted): poorly absorbed
Unchanged ATQ in urine samples ([1]; urine collected up to 72 hours post-dose): not detected
Time for trough concentrations to reach steady state ([2]; 0.33 g TID): ≤ 3 days
Time for trough concentrations to reach steady state ([2]; 0.5 g BID): ≤ 4 days
Time for trough concentrations to reach steady state ([2]; 0.67 g TID): ≤ 3 days
Time for trough concentrations to reach steady state ([2]; 0.75 g BID): 13 days
Cmin ([2]; 1-g/day (0.33 g TID), Day 7, mean, N = 8): 583 ng/mL
CLpo, 24 ([2]; 1-g/day (0.33 g TID), daily dose divided by mean AUC(0-tau, 24)): 24.2 [c] L/h
Cavg, 24 h [2, 3]: 1730 ng/mL
Fluct24 h [2, 3]: 189%
TimeHgh(0-24) (time above the pharmacologically relevant concentration of 0.5 μg/mL) ([2]; 1-g/day (0.33 g TID), median, N = 8): 23.80 h
TimeHgh(0-24) (time above the pharmacologically relevant concentration of 0.5 μg/mL) ([2]; 1-g/day (0.5 g BID), 2 times the 0-12 hour morning dose value, N = 5): 19.68 [e] h
Cmin ([2]; 1-g/day (0.5 g BID), Day 14, mean, N = 5): 308 ng/mL
CLpo, 24 ([2]; 1-g/day (0.5 g BID), morning dose data, Day 14, N = 5): 57.5 L/h
Cavg, 24 h [2, 4]: 1040 ng/mL
Fluct24 h [2, 4]: 145%
Estimated daily AUC higher with TID than BID ([2]; 1-g/day: 0.33 g TID versus 0.5 g BID): approximately 66%
TimeHgh(0-24) (time above the pharmacologically relevant concentration of 0.5 μg/mL) ([2]; 1.5-g/day (0.75 g BID), 2 times the 0-12 hour morning dose value, N = 6): 21.84 [e] h
Cmin ([2]; 1.5-g/day (0.75 g BID), Day 14, mean, N = 6): 443 ng/mL
CLpo, 24 ([2]; 1.5-g/day (0.75 g BID), morning dose data, Day 14, N = 6): 53.5 L/h
Cavg, 24 h [2, 5]: 1380 ng/mL
Fluct24 h [2, 5]: 147%
Cmin ([2]; 2-g/day (0.67 g TID), Day 7, mean, N = 7): 1220 ng/mL
CLpo, 24 ([2]; 2-g/day (0.67 g TID), daily dose divided by mean AUC(0-tau, 24)): 18.5 [c] L/h
Cavg, 24 h [2, 6]: 4480 ng/mL
Fluct24 h [2, 6]: 177%
TimeHgh(0-24) (time above the pharmacologically relevant concentration of 0.5 μg/mL) ([2]; 2-g/day (0.67 g TID), median, N = 7): 23.87 h
Accumulation of Cmax ([2]; BID administration): did not accumulate
Cmax ([2]; 0.33 g, 1-g/day (0.33 g TID), Day 7, N = 8, read-out: Cmax last dose): 2400 ng/mL
Cmax ([2]; 0.33 g, 1-g/day (0.33 g TID), highest Cmax of the 3 serial TID profiles, Day 6 lunch, N = 8, read-out: Cmax): 3530 ng/mL
Cmax ([2]; 0.5 g, 1-g/day (0.5 g BID), Day 14, N = 5, read-out: Cmax last dose): 1890 ng/mL
Cmax ([2]; 0.5 g, 1-g/day (0.5 g BID), Day 14 morning dose, N = 5, read-out: Cmax): 1890 ng/mL
Cmax ([2]; 0.67 g, 2-g/day (0.67 g TID), Day 7, N = 7, read-out: Cmax last dose): 4280 ng/mL
Cmax ([2]; 0.67 g, 2-g/day (0.67 g TID), highest Cmax of the 3 serial TID profiles, Day 6 dinner, N = 7, read-out: Cmax): 9000 ng/mL
AUC ([2]; 0.75 g, 1.5-g/day (0.75 g BID), 2 times the 0-12 hour morning dose value, N = 6): 33200 ng·h/mL
Cmax ([2]; 0.75 g, 1.5-g/day (0.75 g BID), Day 14, N = 6, read-out: Cmax last dose): 2540 ng/mL
Cmax ([2]; 0.75 g, 1.5-g/day (0.75 g BID), Day 14 morning dose, N = 6, read-out: Cmax): 2540 ng/mL
AUC ([2]; 1 g/day, 1-g/day (0.33 g TID), mean, N = 8): 41400 ng·h/mL
AUC ([2]; 1 g/day, 1-g/day (0.5 g BID), 2 times the 0-12 hour morning dose value, N = 5): 25000 ng·h/mL
AUC ([2]; 2 g/day, 2-g/day (0.67 g TID), mean, N = 7): 108000 ng·h/mL
Maximum concentrations higher with TID than BID ([2]; following the final morning dose, similar doses): approximately 27%
Dose proportionality of exposure following multiple-dose administration ([2]; within TID (2-fold) or BID (1.5-fold) dose range): approximately proportional increases
Decrease from baseline activity of protein S (protein S): 56%
Decrease from baseline activity of factor II (factor II (prothrombin)): 51%
